For 32 compounds, IC50 and EC50 results are on record in ChEMBL document CHEMBL1201862, “PubChem BioAssay data set” (2004).

Each structure is given as a SMILES string. The source made the active and inactive calls. Cut-off read from the data, not from the text of the source, for most assays here: actives have a measured EC50 and inactives only a lower limit. Where only a bound is given, the exact number is not on record here.

Experiment [1] has as its target T1, Protein skinhead-1 (Caenorhabditis elegans, UniProt P34707).
T1 sequence (P34707 whole entry): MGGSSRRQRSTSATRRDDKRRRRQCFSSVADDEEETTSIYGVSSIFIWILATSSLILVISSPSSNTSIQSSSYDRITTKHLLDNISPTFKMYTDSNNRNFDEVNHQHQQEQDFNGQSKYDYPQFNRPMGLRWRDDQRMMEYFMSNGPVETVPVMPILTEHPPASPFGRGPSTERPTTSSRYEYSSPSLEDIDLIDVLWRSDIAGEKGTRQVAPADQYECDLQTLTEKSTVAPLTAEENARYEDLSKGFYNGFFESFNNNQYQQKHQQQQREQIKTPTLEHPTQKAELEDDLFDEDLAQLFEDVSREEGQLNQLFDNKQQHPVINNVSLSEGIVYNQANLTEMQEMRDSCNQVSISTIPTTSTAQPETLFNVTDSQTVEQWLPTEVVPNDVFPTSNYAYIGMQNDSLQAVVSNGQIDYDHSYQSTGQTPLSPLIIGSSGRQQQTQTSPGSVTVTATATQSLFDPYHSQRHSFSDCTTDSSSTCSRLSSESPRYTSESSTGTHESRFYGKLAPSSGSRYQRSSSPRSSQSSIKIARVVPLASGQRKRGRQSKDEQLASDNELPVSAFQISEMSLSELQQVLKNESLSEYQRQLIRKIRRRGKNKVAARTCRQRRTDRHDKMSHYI
The format is functional.

Experiment [2] concerns the target T2, RNA-binding protein pos-1 (Caenorhabditis elegans, UniProt G5EF15).
T2 sequence (G5EF15 whole entry): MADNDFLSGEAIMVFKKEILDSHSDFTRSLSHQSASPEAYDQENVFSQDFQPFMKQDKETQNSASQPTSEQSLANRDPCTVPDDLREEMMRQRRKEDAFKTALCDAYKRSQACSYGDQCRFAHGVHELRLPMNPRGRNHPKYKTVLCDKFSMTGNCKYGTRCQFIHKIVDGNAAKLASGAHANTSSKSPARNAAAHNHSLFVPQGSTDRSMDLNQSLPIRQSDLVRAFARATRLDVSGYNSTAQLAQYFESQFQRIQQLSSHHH
Nature of the experiment: inhibitors of POS-1/mex-3 RNA binding, dose response, biochemical, fluorescence polarization (AID 1964).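 Note: purified POS-1 fused to maltose binding protein made in E. coli; potency of compounds blocking POS-1 binding to fluorescent RNA.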

The target in experiment [3] is T3, Zinc finger protein mex-5 (Caenorhabditis elegans, UniProt Q9XUB2).
T3 sequence (Q9XUB2 whole entry): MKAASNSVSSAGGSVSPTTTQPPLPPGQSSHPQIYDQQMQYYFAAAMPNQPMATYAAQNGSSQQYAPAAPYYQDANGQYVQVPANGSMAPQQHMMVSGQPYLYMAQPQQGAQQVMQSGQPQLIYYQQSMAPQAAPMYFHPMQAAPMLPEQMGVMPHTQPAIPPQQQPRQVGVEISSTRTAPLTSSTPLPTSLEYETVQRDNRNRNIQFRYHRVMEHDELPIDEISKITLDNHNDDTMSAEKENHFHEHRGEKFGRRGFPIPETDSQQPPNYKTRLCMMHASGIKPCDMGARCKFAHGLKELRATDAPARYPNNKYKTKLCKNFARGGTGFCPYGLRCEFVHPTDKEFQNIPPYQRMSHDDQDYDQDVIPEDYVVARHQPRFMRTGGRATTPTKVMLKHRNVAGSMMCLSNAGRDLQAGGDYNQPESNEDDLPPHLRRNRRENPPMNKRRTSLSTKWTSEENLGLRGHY
Nature of the experiment: MEX-5/TCR-2 RNA interaction inhibitors, dose response, biochemical, C. elegans, fluorescence polarization (AID 1960).

Experiment [4] has as its target T4, Heat shock factor protein 1 (Mus musculus, UniProt P38532).
T4 sequence (P38532 whole entry): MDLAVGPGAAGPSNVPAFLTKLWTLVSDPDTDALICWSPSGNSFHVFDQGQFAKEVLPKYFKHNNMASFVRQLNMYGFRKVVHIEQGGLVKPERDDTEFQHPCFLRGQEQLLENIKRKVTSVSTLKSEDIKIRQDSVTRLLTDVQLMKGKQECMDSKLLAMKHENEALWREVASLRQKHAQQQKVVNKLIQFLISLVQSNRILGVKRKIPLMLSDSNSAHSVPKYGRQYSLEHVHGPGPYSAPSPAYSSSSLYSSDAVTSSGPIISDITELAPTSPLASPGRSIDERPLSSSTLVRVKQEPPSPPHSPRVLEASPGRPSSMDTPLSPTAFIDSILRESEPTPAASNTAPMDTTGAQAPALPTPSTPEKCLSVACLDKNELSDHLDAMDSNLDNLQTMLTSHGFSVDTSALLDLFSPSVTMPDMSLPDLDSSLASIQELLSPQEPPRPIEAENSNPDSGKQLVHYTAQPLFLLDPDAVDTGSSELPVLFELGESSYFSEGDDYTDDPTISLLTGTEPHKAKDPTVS
The experiment in a line: HSF1 potentiators in luciferase reporter cells, confirmation, cell-based, NIH3T3, luminescence, dose retest (AID 435004).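 Note: stress induced by proteasome inhibitor MG132 added 30 min after compound; luciferase reporter driven by HSF1 response element in NIH3T3 cells; actives raise luminescence as potentiators of the MG132 stress response.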 The class given is functional.

Experiment [5] has as its target T5, Corticotropin-releasing factor receptor 2/Corticotropin-releasing factor-binding protein (Homo sapiens, UniProt P24387+Q13324).
T5 sequence (Q13324 whole entry): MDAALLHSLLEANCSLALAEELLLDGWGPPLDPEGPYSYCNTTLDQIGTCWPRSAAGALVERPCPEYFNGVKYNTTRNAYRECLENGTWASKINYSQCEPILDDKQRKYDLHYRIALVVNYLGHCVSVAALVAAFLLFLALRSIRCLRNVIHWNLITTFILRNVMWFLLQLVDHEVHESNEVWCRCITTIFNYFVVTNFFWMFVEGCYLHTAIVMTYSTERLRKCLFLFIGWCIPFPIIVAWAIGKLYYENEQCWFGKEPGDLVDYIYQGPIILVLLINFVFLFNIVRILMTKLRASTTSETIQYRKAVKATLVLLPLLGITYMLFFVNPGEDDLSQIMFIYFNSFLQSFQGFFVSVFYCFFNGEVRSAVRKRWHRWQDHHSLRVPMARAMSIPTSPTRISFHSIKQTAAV
T5 sequence (P24387 whole entry): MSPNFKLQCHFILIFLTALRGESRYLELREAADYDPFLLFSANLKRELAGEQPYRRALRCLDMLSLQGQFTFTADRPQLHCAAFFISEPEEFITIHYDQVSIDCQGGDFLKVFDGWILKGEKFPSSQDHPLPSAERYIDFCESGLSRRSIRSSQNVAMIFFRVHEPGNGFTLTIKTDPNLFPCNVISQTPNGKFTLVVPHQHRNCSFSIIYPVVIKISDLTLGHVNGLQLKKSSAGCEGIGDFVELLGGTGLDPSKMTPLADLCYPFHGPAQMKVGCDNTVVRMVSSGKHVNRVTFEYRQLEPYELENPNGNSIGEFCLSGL
The experiment in a line: Dose Response confirmation of uHTS hits for small molecule antagonists of the CRF-binding protein and CRF-R2 receptor complex. The format is functional. As to conditions: read-out: IC50_Mean.

For experiment [6], the target named is T5, Corticotropin-releasing factor receptor 2/Corticotropin-releasing factor-binding protein. Nature of the experiment: activators of CRF receptor 2 with binding protein – uHTS hits, confirmation (AID 602473). Conditions: read-out: EC50_Mean. The class given is functional.
Experiment [7] relates to H4. The experiment in a line: Luminescence Cell-Based Dose Response HTS to Identify Activators of 5'UTR Stem-Loop Driven Prion Protein mRNA Translation in H4 Neuroglioblastoma Cells. [Related pubchem assays: 1829 (Project Summary), 1814 (Primary HTS)]. The format is functional. Conditions: Homo sapiens.
Experiment [8] is described as follows: Luminescence Cell-Based Dose Response HTS to Identify Activators of Luciferase Translation or Activity in H4 […] Cells. [Related pubchem assays: 1829 (Project Summary), 1814 (Primary HTS)]. The format is functional.
Experiment [9] in a line: inhibitors of intracellular T. cruzi replication, confirmation, NIH3T3 host cells, beta-gal luminescence (AID 2044).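 Note: intracellular parasites grown in NIH/3T3 mouse fibroblasts as host cells; luminescent beta-galactosidase reporter signal from transgenic T. cruzi replicating inside host cells; inhibitors lower the luminescence signal.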 The class given is functional, cell-based.
A short description of experiment [10]: cytotoxicity toward NIH3T3 fibroblasts, dose response, counter-screen, cell-based, ATP luminescence, mouse fibroblasts (AID 2010).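 Note: cells exposed to compound for about 90 hours before reading.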 The class given is functional.
Experiment [11] is described as follows: inhibitors of SNCA 5'UTR-driven reporter translation, confirmation, H4 neuroglioma cells, luminescence (AID 1988). The class given is functional, cell-based.
Experiment [12] can be described thus: inhibitors of firefly luciferase expression or activity, dose response, H4 neuroglioma cells, luminescence (AID 1990). The class given is functional, cell-based.
The nature of experiment [13]: Luminescence Cell-Based Dose Response HTS to Identify Inhibitors of 5'UTR Stem-Loop Driven Prion Protein mRNA Translation in H4 Neuroglioblastoma Cells. [Related pubchem assays: 1827 (Project Summary), 1813 (Primary HTS)]. The format is functional.

In the case of `O=S(=O)(Cc1cc(Sc2ccccc2)nc(-c2ccccc2)n1)c1ccccc1`, in experiment [1], the IC50 is > 100 µM (inactive). Same read-out and setting: next, `Cc1nc2nc(C)c(CCC(=O)N3CCN(c4ccccc4)CC3)c(C)n2n1`: > 100 µM (inactive).

In the case of `COC(=O)c1ccc(-n2c(C)cc(C(=O)COC(=O)CC3Sc4ccccc4NC3=O)c2C)cc1` (centres undefined), the EC50 in [2] and in [3] was > 300 µM (not active) throughout. Consider `O=c1/c(=C/c2ccccc2)sc2nnc(-c3cccs3)n12`, for which, in experiment [4], the EC50 was 23.3 µM (active). Regarding `O=C1NC(=O)N(c2ccccc2F)C(=O)/C1=C/c1cn(CC(=O)N2CCOCC2)c2ccccc12`, the EC50 in [2] and in [3] was > 300 µM (not active) each time. Take `CC1(O)C(=O)C=C2C=C(C3CC3)OC=C2C1=O` (centres undefined): the results for the EC50 in [2] and in experiment [3] were 41.3 µM (active) and 17.8 µM (active), respectively. For the compound `O=c1oc2ccccc2c(NC2CCCCC2)c1NS(=O)(=O)c1ccc(Cl)cc1`, in experiment [4], the EC50 was 120 µM (active). `CCN1CCN(Cc2c(O)ccc3c2O/C(=C\c2ccccc2)C3=O)CC1`: the results for the EC50 in [2] and in [3] were 30.3 µM (active) and 57.9 µM (active), respectively.

For the compound `CCN(CC)S(=O)(=O)c1cc(OC)c(C)cc1C`, the IC50 in experiment [5] was > 47.1 µM (inactive). In [6], the EC50 is > 53 µM (inactive).

As for `Cc1ccc(O)c(NC(=O)Cc2ccc3ccccc3c2)c1`, the EC50 in experiment [4] is 7.7 µM (active). `Cc1cc(C(=O)N/N=C/c2ccc(-c3cccc(Cl)c3Cl)o2)[nH]n1`: the EC50 in experiment [2] is 28.3 µM (active); in experiment [3] it was 10.2 µM (active). Turning to `O=[N+]([O-])c1ccc(Nc2ccc(Cl)cc2)nc1`, the IC50 in experiment [1] is > 100 µM (inactive). Still for that read-out and setting: for `COC(=O)c1ccc(C#Cc2ccccc2)o1` the value was > 100 µM (inactive). As to `CCC(C)NC(=O)c1nc(O)c2nnn(Cc3ccccc3Cl)c2n1` (centres undefined), the EC50 in [4] is > 260 µM (inactive). As for `CCCCCCC1CCC(C(=O)NC(CCSC)C(=O)NC(C(=O)OC)C(C)C)CC1` (centres undefined), the EC50 in [4] was > 260 µM (inactive). For `Brc1ccc2oc(-c3cc[nH]n3)cc2c1`, the EC50 was 93.8 µM (active) in experiment [7] and 0.281 µM (active) in experiment [8]. The IC50 in experiment [1] is 80 µM (inactive).

For the compound `CCCCc1ccc(NS(=O)(=O)c2c(C)n(C)c(=O)n(C)c2=O)cc1`, the EC50 in [4] is > 260 µM (inactive). Consider `O=C(CC1Sc2ccccc2NC1=O)NNc1cc(Cl)ccc1Cl` (centres undefined), for which the IC50 in experiment [1] is > 100 µM (inactive).

For the compound `O=C(CNC(=O)C1CCCCC1)Nc1ccc(F)c(Cl)c1`, in [5], the IC50 was > 47.1 µM (inactive). In addition, in experiment [6], the EC50 was > 53 µM (inactive).

Consider `Cc1cc(C)c(OCCN(C)Cc2ccccc2)c(Br)c1`, for which the EC50 in experiment [9] is 1.68 µM (active); in experiment [6] it was > 53 µM (inactive); in [10] it was > 60 µM (not active). In addition, the IC50 in [5] is > 47.1 µM (inactive). Take `Cc1ccn2cc(CSc3ccccc3N)nc2c1`: the IC50 in experiment [5] was > 47.1 µM (inactive). Moreover, the EC50 in [6] was > 53 µM (inactive). Take `Sc1nc(-c2ccc(Br)cc2)cn1CCc1ccccc1`: the EC50 in experiment [4] is > 260 µM (inactive). Still for that read-out and setting: next, `COc1cc(CC(=O)N(c2ccccc2)c2nc(C)cs2)cc(OC)c1OC`: > 260 µM (inactive); `N#CCCn1cc(C=C(C#N)C#N)c(-c2ccc(-c3ccccc3)cc2)n1`: 7.51 µM (active). With `O=C(Nc1ccccc1Oc1cccnc1)C1CCCN(Cc2ccccc2O)C1` (centres undefined), in [5], the IC50 is > 47.1 µM (inactive). In addition, the EC50 in experiment [6] is > 53 µM (inactive). Take `COc1ccc(/C=N/OCC(=O)N=Nc2c(O)[nH]c3ccc(Br)cc23)cc1`: the IC50 in [5] was 5.15 µM (active). Besides, the EC50 in experiment [6] was > 53 µM (inactive). Regarding `O=C(Nc1nc(-c2ccc(Cl)s2)cs1)c1ccco1`, the IC50 in experiment [1] is 13.7 µM (active). Turning to `Fc1ccccc1OCCSc1nc2ccccc2o1`, the IC50 in experiment [1] is 36.3 µM (active). As for `CCOc1ccc(-c2nc(N)ncc2Oc2cccc(OC)c2)c(O)c1`, the EC50 is > 60 µM (not active) in experiment [11], > 120 µM (not active) in [12], > 53 µM (inactive) in [6] and 16.4 µM (active) in experiment [13]. For the same compound, the IC50 was > 47.1 µM (inactive) in [5] and > 100 µM (inactive) in [1]. As for `Cc1ccc(S(=O)(=O)N2CCOCC2)cc1C(=O)NC1CCN(Cc2ccccc2)CC1`, the IC50 in experiment [5] was > 47.1 µM (inactive). The EC50 in experiment [6] is > 53 µM (inactive).

As for `CN1CCN(C(=O)c2ccccc2N(Cc2ccccc2)S(C)(=O)=O)CC1`, the IC50 in experiment [1] is > 100 µM (inactive).

As for `COc1ccc(/C=N/NC(=O)c2ccccc2NC(=O)c2ccco2)c(OC)c1`, the IC50 in experiment [5] was > 47.1 µM (inactive). For the same compound, the EC50 in experiment [6] is > 53 µM (inactive).
